Like-named read-outs stand apart in the source and are kept apart here.
Experiments:
[1] = set-up: species or system ICR mice; settings: ICR, mouse, in vivo
Description: Referring to Table 3, ZT-1a pharmacokinetics were determined following a single 5 mg/kg intravenous (IV) dose and a single 10 mg/kg oral (PO) dose in ICR mice (N=3 at each time point). Blood samples were collected at 0.08, 0.25, 0.5, 1, 2, 4, 8, 10 & 24 hr (IV) & 0.25, 0.5, 1, 2, 4, 8, 10 & 24 hr (PO) post dose. Samples were subjected to drug assay by LC-MS/MS, and data were analyzed by WinNonlin V6.3. Tmax=time of maximum plasma concentration, Cmax=maximum plasma concentration, AUC=area under the curve (measure of exposure), T1/2=half life, CL=plasma clearance, Vz=volume of distribution, MRT, mean residence time; F=oral bioavailability.

[2] = test system: mouse model of ischemic stroke; assay: Ex vivo MRI (T2WI, DTI) 7 days post-stroke; format: in vivo; settings: p>0.05
Description: For ex-vivo MRI, brains were maintained within the skull to avoid anatomical deformation. After overnight post-fixation in 4% PFA, heads were stored in PBS solution at 4° C. […] was performed at 500 MHz using a Bruker AV3HD 11.7 T/89 mm vertical bore small animal MRI scanner, equipped with a 25-mm quadrature RF coil and Paravision 6.0 (Bruker Biospin, Billerica, Mass.).
In a blinded manner, region of interests (ROIs) were manually drawn for the ipsilateral (IL) and contralateral (CL) cortex, striatum, corpus callosum (CC), and external capsule (EC). Values for the fractional anisotropy (FA), […] diffusion coefficient (ADC), and diffusivity were calculated for the entire volume of each ROI.
Referring to FIG. 15A, representative T2WI images and quantitative analyses of lesion volume and atrophy (shrinkage) of ex vivo brains from vehicle (Veh) control and ZT-1a-treated mice at 7 days post-MCAO are shown. […]
Referring to FIG. 15B, representative images of directionally encoded color (DEC) and fractional anisotropy (FA) maps are shown. […] Bar graphs display quantitation of mean values of FA, mean diffusivity (MD), axial diffusivity (AD) and radial diffusivity (RD) of white matter tissues (CC or EC) of ex vivo brain from vehicle control (Veh) and ZT-1a-treated mice at 7 days post-MCAO. […]

[3] = ZT-1a content in brain and plasma, sham vs tMCAO mice, LC-MS/MS; format: in vivo, mouse; settings: 2 hrs post-injection
Description: ZT-1a content in brain homogenates and plasma was assayed at the University of Pittsburgh Small Molecule Biomarker Core, using liquid chromatography-tandem mass spectrometry (LC-MS/MS). C57BL/6j mice (normotensive male, 11 weeks old) at 3 hr post Sham surgery or tMCAO were intraperitoneally injected with 5 mg/kg ZT-1a. At 2 hr post injection, blood was collected into heparin-treated EP tubes by a cardiac puncture. After a brief cardiac perfusion with ice-cold normal saline, brain tissues (contralateral and ipsilateral hemispheres) were collected. Plasma samples were prepared by centrifugation of whole blood for 10 min at 1,500 g using a refrigerated centrifuge. Brain tissues and plasma samples were diluted, and protein was precipitated with acetonitrile prior to detection of ZT-1a with a triple quad mass spectrometer. Glyburide was used as the internal standard. Samples were then injected by autosampler and ZT-1a was eluted from a Waters Acquity UPLC BEH C18, 1.7 um, 2.1×100 mm reversed-phase column with a water (with 0.1% formic acid) and acetonitrile (with 0.1% formic acid) gradient.

wild type KCC2 = assay: 86Rb+ uptake assay in HEK293 cells; format: cell-based, human; settings: n=3
Description: (§1) HEK293 cells were plated at 50-60% confluence of in 12-well plates (2.4-cm-diameter per/well) and transfected with wild-type or various mutant forms of full-length flag-tagged human KCCs. Each well of HEK293 cells was transfected with 2.5 μL of 1 mg/mL polyethylenimine and 1 μg of plasmid DNA. The ^86Rb^+-uptake assay was performed on cells at 36 hours post-transfection. Culture medium was aspirated from the wells and replaced with either isotonic or hypotonic medium for 15 min at 37° C., then for a further 15 min with stimulating medium containing additional 1 mM ouabain and 0.1 mM bumetanide, to prevent ^86Rb^+ uptake via the NKCC1 cotransporter. This stimulating medium was then removed and replaced with isotonic medium plus inhibitors containing 2 μCi/mL ^86Rb^+ for 10 min at 37° C., following which cells were rapidly washed three times with the respective ice-cold non-radioactive medium. The cells were lysed in 300 μL of ice-cold lysis buffer and ^86Rb^+ uptake was quantitated by liquid scintillation counting (PerkinElmer).
(§2) Referring to FIG. 8, ^86Rb^+ uptake assays in the presence of ZT-1a is shown. […] 10 min ^86Rb^+ uptake values were quantified by scintillation counting, normalized per mg protein for each condition and plotted for both isotonic and hypotonic conditions. Statistical significance was determined at p<0.05 (both panels).

[4] = test system: KCC2 double mutant Thr906A1a/Thr1007Ala; assay: 86Rb+ uptake assay in HEK293 cells; format: cell-based, human; settings: n=3, p>0.05
Description: as §1, §2

Cc1cc(C(C#N)c2ccc(Cl)cc2)c(Cl)cc1NC(=O)c1cc(Cl)ccc1O (centres unmarked) [ZT-1a, 5-chloro-N-(5-chloro-4-((4-chlorophenyl)(cyano)methyl)-2-methylphenyl)-2-hydroxy-benzamide]
AUC [1]: 2340 ng·h/mL | C0 ([1]; iv, 5 mg/kg): 14900 ng/mL | Cl ([1]; iv, 5 mg/kg): 35.5 mL/kg/min | MRT(0-∞) ([1]; iv, 5 mg/kg): 0.45 h | Vz ([1]; iv, 5 mg/kg): 0.948 L/kg | MRT(0-∞) ([1]; po, 10 mg/kg): 3.3 h | EC tract FA values in the IL hemisphere [2]: did not change | brain concentrations, stroke mice vs sham-controls ([3]; 5 mg/kg i.p. at 3 hrs after tMCAO, n=10-11): ~1.8 fold | plasma bioavailability, sham control vs ischemic stroke mice ([3]; 5 mg/kg i.p., p=0.29): no significant difference | activation of WT KCC2 (86Rb+ uptake) (wild type KCC2): > 2.6 fold | increase of activity of KCC2 double mutant (86Rb+ uptake) [4]: 7±2%
